{"source": "patent US20250034182A1", "about": "“PHOSPHOLIPID COMPOUNDS AND METHODS OF MAKING AND USING THE SAME” (priority 2021, published 2025)", "data": [{"tested_on": "Recombinant Respiratory Syncytial virus strain A2 containing the firefly luciferase reporter (RSV-Fluc) in NHBE cells", "assay": "RSV NHBE FLuc EC50 (Example I)", "type": "cell-based", "settings": "human respiratory syncytial virus, 72 h, read-out: RSV NHBE FLuc EC50 (nM) (per Ex. I)", "description": "Normal human bronchial epithelial (NHBE) cells are purchased from Lonza (Walkersville, MD Cat #CC-2540) and maintained in Bronchial Epithelial Cell Growth Medium (BEGM) (Lonza, Walkersville, MD, Cat #CC-3170) with all provided supplements in the BulletKit. Cells are passaged 2-3 times per week to maintain sub-confluent densities and are used for experiments at passages 2-4.\nRecombinant Respiratory Syncytial virus strain A2 containing the firefly luciferase reporter between the P and M genes (RSV-Fluc, 6.3×10^6 TCID50/mL) is purchased from Viratree (Durham, NC, Cat #R^145).\nNHBE cells (5×10^3/well) are seeded in 100 μL white wall/clear bottom 96-well plates (Corning) with culture medium and are incubated for 24 hours at 37° C. with 5% CO2. On the following day, three-fold serial dilutions of compounds prepared in DMSO are added to the wells using the HP D300e digital dispenser with normalization to the highest concentration of DMSO in all wells. The cells are then infected with RSV-Fluc diluted with BEGM media at an MOI of 0.1 for a final volume of 200 μL media/well. Uninfected and untreated wells are included as controls to determine compound efficacy against RSV-Fluc. Following incubation with compound and virus for three days at 37° C. with 5% CO2, 100 μL of culture supernatant is removed from each well and replaced with 100 μL of ONE-Glo luciferase reagent (Promega, Madison, WI, Cat #E6110). The plates are gently mixed by rocking for 10 minutes at 21° C. and luminescence signal is measured using an Envision plate reader (PerkinElmer). Values are normalized to the uninfected and infected DMSO controls (0% and 100% infection, respectively). Non-linear regression analysis is applied to determine the compound concentration at which 50% luminescence signal is reduced (EC50) using the XLfit4 add-in for MICROSOFT®EXCEL®. All experiments are performed in duplicate with two technical repeats each.", "units": {"EC50": "nM"}, "values": [{"smiles": "CCCCCCCCCCCCCCCCCCOC[C@H](COP(=O)(O)OC[C@@]1(C#N)O[C@@H](c2ccc3c(N)ncnn23)[C@H](O)[C@@H]1O)OCc1ccc(C#N)c(-n2cncn2)c1", "note": "[Compound 16, ((2R,3S,4R,5S)-5-(4-aminopyrrolo[2,1-f][1,2,4]triazin-7-yl)-2-cyano-3,4-dihydroxytetrahydrofuran-2-yl)methyl ((R)-2-((4-cyano-3-(1H-1,2,4-triazol-1-yl)benzyl)oxy)-3-(octadecyloxy)propyl) hydrogen phosphate]", "EC50": "< 6"}, {"smiles": "CCCCCCCCCCCCCCCCCCOC[C@H](COP(=O)(O)OC[C@@]1(C#N)O[C@@H](c2ccc3c(N)ncnn23)[C@H](O)[C@@H]1O)OCc1ccc(C#N)nc1", "note": "[Compound 19, ((2R,3S,4R,5S)-5-(4-aminopyrrolo[2,1-f][1,2,4]triazin-7-yl)-2-cyano-3,4-dihydroxytetrahydrofuran-2-yl)methyl ((R)-2-((6-cyanopyridin-3-yl)methoxy)-3-(octadecyloxy)propyl) hydrogen phosphate]", "EC50": 98}, {"smiles": "CCCCCCCCCCCCCCCCCCOC[C@H](COP(=O)(O)OC[C@@]1(C#N)O[C@@H](c2ccc3c(N)ncnn23)[C@H](O)[C@@H]1O)Oc1cccc(C#N)n1", "note": "[Compound 21, ((2R,3S,4R,5S)-5-(4-aminopyrrolo[2,1-f][1,2,4]triazin-7-yl)-2-cyano-3,4-dihydroxytetrahydrofuran-2-yl)methyl ((R)-2-((6-cyanopyridin-2-yl)oxy)-3-(octadecyloxy)propyl) hydrogen phosphate]", "EC50": 41}, {"smiles": "CCCCCCCCCCCCCCCCCC[C@@H](COP(=O)(O)OC[C@@]1(C#N)O[C@@H](c2ccc3c(N)ncnn23)[C@H](O)[C@@H]1O)OCc1cc(F)cc(C#N)c1", "note": "[Compound 37, ((2R,3S,4R)-5-(4-aminopyrrolo[2,1-f][1,2,4]triazin-7-yl)-2-cyano-3,4-dihydroxytetrahydrofuran-2-yl)methyl ((S)-2-((3-cyano-5-fluorobenzyl)oxy)icosyl) hydrogen phosphate]", "EC50": 276}, {"smiles": "CCCCCCCCCCCCCCCCCCCC[C@H](COP(=O)(O)OC[C@@]1(C#N)O[C@@H](c2ccc3c(N)ncnn23)[C@H](O)[C@@H]1O)Oc1cccc(C#N)c1", "note": "[Compound 51, ((2R,3S,4R,5S)-5-(4-aminopyrrolo[2,1-f][1,2,4]triazin-7-yl)-2-cyano-3,4-dihydroxytetrahydrofuran-2-yl)methyl ((R)-2-(3-cyanophenoxy)docosyl) hydrogen phosphate]", "EC50": 66}, {"smiles": "CCCCCCCCCCCCCCCCCOC[C@H](COP(=O)(O)OC[C@@]1(C#N)O[C@@H](c2ccc3c(N)ncnn23)[C@H](O)[C@@H]1O)OCc1cc(F)cc(C#N)c1", "note": "[Compound 53, ((2R,3S,4R,5S)-5-(4-aminopyrrolo[2,1-f][1,2,4]triazin-7-yl)-2-cyano-3,4-dihydroxytetrahydrofuran-2-yl)methyl ((R)-2-((3-cyano-5-fluorobenzyl)oxy)-3-(heptadecyloxy)propyl) hydrogen phosphate]", "EC50": 69}, {"smiles": "CCCCCCCCCCCCCCOC[C@H](COP(=O)(O)OC[C@@]1(C#N)O[C@@H](c2ccc3c(N)ncnn23)[C@H](O)[C@@H]1O)Oc1cc(C#N)ccn1", "note": "[Compound 69, ((2R,3S,4R)-5-(4-aminopyrrolo[2,1-f][1,2,4]triazin-7-yl)-2-cyano-3,4-dihydroxytetrahydrofuran-2-yl)methyl ((R)-2-((4-cyanopyridin-2-yl)oxy)-3-(tetradecyloxy)propyl) hydrogen phosphate]", "EC50": 29}, {"smiles": "CCCCCCCCCCCCCCCCCCOC[C@H](COP(=O)(O)OC[C@@]1(C#N)O[C@@H](c2ccc3c(N)ncnn23)[C@H](O)[C@@H]1O)OCc1ccc(C#N)cc1OC", "note": "[Compound 73, ((2R,3S,4R)-5-(4-aminopyrrolo[2,1-f][1,2,4]triazin-7-yl)-2-cyano-3,4-dihydroxytetrahydrofuran-2-yl)methyl ((R)-2-((4-cyano-2-methoxybenzyl)oxy)-3-(octadecyloxy)propyl) hydrogen phosphate]", "EC50": 25}, {"smiles": "CCCCCCCCCCCCCCOC[C@H](COP(=O)(O)OC[C@@]1(C#N)O[C@@H](c2ccc3c(N)ncnn23)[C@H](O)[C@@H]1O)OCc1ccc(C#N)cc1F", "note": "[Compound 75, ((2R,3S,4R,5S)-5-(4-aminopyrrolo[2,1-f][1,2,4]triazin-7-yl)-2-cyano-3,4-dihydroxytetrahydrofuran-2-yl)methyl ((R)-2-((4-cyano-2-fluorobenzyl)oxy)-3-(tetradecyloxy)propyl) hydrogen phosphate]", "EC50": "< 10.9"}]}, {"tested_on": "CAN97-83-GFP1 (A2a) hMPV in H1-HeLa cells", "assay": "hMPV H1-Hela EC50, anti-nucleoprotein ELISA (Example X)", "type": "cell-based", "settings": "human metapneumovirus, 96 h, read-out: hMPV H1-Hela EC50 (nM) (per Ex. X)", "description": "The human metapneumoavirus (hMPV) anti-viral assay is an anti-nucleoprotein ELISA performed in infected H1-HeLa cells. H1-HeLa cells were maintained in Dulbecco's Modified Eagle's Medium with high glucose (Gibco, Cat #: 11995073) supplemented with 10% FBS (HyClone, Cat #: SH303396.03), 100 units/mL penicillin and 100 μg/mL streptomycin (Gibco, Cat #: 15140122). One day before infection, H1-HeLa cells were seeded into 96-well plates (Corning, Cat. #: 3903) at 0.1 mL/well at 1.5×10^5 cells/mL in Opti-MEM (Gibco, Cat #: 31985070) supplemented with 2% FBS, and were incubated at 37° C. in a 100% humid atmosphere containing 5% (v/v) CO2 overnight. On the next day, CAN97-83-GFP1 (A2a) hMPV was diluted in Opti-MEM medium containing 200 μg/mL CaCl2) and 2 μg/mL TPCK treated trypsin and distributed to the 96-well plates at 0.1 mL/well for an MOI=0.1. Test compounds were distributed to each well using a HP D300e digital dispenser with a final volume of 200 µL/well. After the plates were centrifuged at 700 g for one hour at room temperature, they were maintained in a humidified chamber at 37-C with 5% (v/v) CO2 for 96 hours. After the incubation, the medium was removed, and the plates were fixed with 0.1 mL/well 1% formaldehyde for 15 min at room temperature. The fixative was removed, the plates were air dried for 30-60 minutes, and then permeabilized with 0.1 mL/well 0.5% Triton X-100 in PBS for five minutes at room temperature. Following permeabilization, the plates were washed once with 0.1 mL/well blocking buffer consisting of 10% FBS (HyClone, Cat #: SH303396.03), 5% dry milk (AmericanBio, Cat #: AB10109-01000), and 0.1% Tween 20 (EMD Millipore, Cat #655204) in PBS. The plates were blocked with 0.1 mL/well blocking buffer for 60 minutes at 37° C. afterward. The blocking buffer was removed and 0.05 mL/well human metapneumovirus nucleocapsid antibody (Sigma, Cat #MAB80121) diluted 1:500 in Blocking buffer was added and incubated for two hours at 37-C. The plates were then washed with 0.2 mL/well 0.1% Tween 20/PBS five times, followed by addition of 0.05 mL/well of horseradish peroxidase (HRP) conjugated goat anti-mouse IgG antibody (Fisher Scientific, Cat #501077607) at 1:2000 dilution in the blocking buffer. After one-hour incubation at 37-C, plates were washed five times with 0.2 mL/well 0.1% tween 20 in PBS. The HRP signals were developed by adding 0.1 mL/well of TMB reagent (Thermo Scientific, Cat #: ENN301) and incubating at room until the positive control was apparent. At that point, the reaction was stopped by adding 0.1 mL/well TMB stop solution (SeraCare, Cat #: 5150-0021). The absorbance was measured at 450 nm with an EnVision plate reader. The relative absorbance was calculated by normalizing the absorbance of the compound-treated groups to that of the DMSO-treated groups (set as 100%). EC50 values were calculated using a nonlinear four parameter variable slope regression model.", "units": {"EC50": "nM"}, "values": [{"smiles": "CCCCCCCCCCCCCCCCCCC[C@H](COP(=O)(O)OC[C@@]1(C#N)O[C@@H](c2ccc3c(N)ncnn23)[C@H](O)[C@@H]1O)OCc1ccc(-n2cncn2)c(C#N)c1", "note": "[Compound 30, ((2R,3S,4R)-5-(4-aminopyrrolo[2,1-f][1,2,4]triazin-7-yl)-2-cyano-3,4-dihydroxytetrahydrofuran-2-yl)methyl ((R)-2-((3-cyano-4-(1H-1,2,4-triazol-1-yl)benzyl)oxy)henicosyl) hydrogen phosphate]", "EC50": 188}, {"smiles": "CCCCCCCCCCCCCCCCCCCC[C@H](COP(=O)(O)OC[C@@]1(C#N)O[C@@H](c2ccc3c(N)ncnn23)[C@H](O)[C@@H]1O)OCc1cc(F)cc(C#N)c1", "note": "[Compound 34, ((2R,3S,4R)-5-(4-aminopyrrolo[2,1-f][1,2,4]triazin-7-yl)-2-cyano-3,4-dihydroxytetrahydrofuran-2-yl)methyl ((R)-2-((3-cyano-5-fluorobenzyl)oxy)docosyl) hydrogen phosphate]", "EC50": 646}]}, {"tested_on": "not listed separately", "assay": "in vitro", "type": "cell-based", "settings": "human", "description": "H1-HeLa cell viability was measured using the CellTiter-Glo® Luminescent Cell Viability Assay kit (Promega, Cat #G7573) according to the manufacturer's protocol. H1-HeLa cells were maintained in Dulbecco's Modified Eagle's Medium with high glucose (Gibco, Cat #: 11995073) supplemented with 10% FBS (HyClone, Cat #: SH303396.03), 100 units/mL penicillin and 100 µg/mL streptomycin (Gibco, Cat #: 15140122). One day before compound treatment, H1-HeLa cells were seeded at […] into 96-well plates (Corning, Cat #3904) in Opti-MEM (Gibco, Cat #: 31985070) supplemented with 2% FBS, and were incubated at 37° C. in a 100% humid atmosphere containing 5% (v/v) CO2. After overnight incubation, the cells were treated with three-fold serial dilutions of the compound. At 96 hours post treatment, CellTiter-Glo reagents were added into each well and luminescence signals were recorded by an EnVision plate reader. The relative cell viability was calculated by normalizing the absorbance of the compound-treated groups to that of the DMSO-treated groups (set as 100% viability) and 10 μM puromycin treated groups (set as 0% viability). The CC50 (compound concentration for reducing 50% of cell viability) was calculated using a nonlinear regression model (four parameters).", "units": {"CC50 at 96 h": "nM"}, "values": [{"smiles": "CCCCCCCCCCCCCCCCCCC[C@H](COP(=O)(O)OC[C@@]1(C#N)O[C@@H](c2ccc3c(N)ncnn23)[C@H](O)[C@@H]1O)OCc1ccc(-n2cncn2)c(C#N)c1", "note": "[Compound 30, ((2R,3S,4R)-5-(4-aminopyrrolo[2,1-f][1,2,4]triazin-7-yl)-2-cyano-3,4-dihydroxytetrahydrofuran-2-yl)methyl ((R)-2-((3-cyano-4-(1H-1,2,4-triazol-1-yl)benzyl)oxy)henicosyl) hydrogen phosphate]", "CC50 at 96 h": 4960}, {"smiles": "CCCCCCCCCCCCCCCCCCCC[C@H](COP(=O)(O)OC[C@@]1(C#N)O[C@@H](c2ccc3c(N)ncnn23)[C@H](O)[C@@H]1O)OCc1cc(F)cc(C#N)c1", "note": "[Compound 34, ((2R,3S,4R)-5-(4-aminopyrrolo[2,1-f][1,2,4]triazin-7-yl)-2-cyano-3,4-dihydroxytetrahydrofuran-2-yl)methyl ((R)-2-((3-cyano-5-fluorobenzyl)oxy)docosyl) hydrogen phosphate]", "CC50 at 96 h": 4690}]}]}
